Assay results published in publication PMC7356613, “Unsymmetrically-Substituted 5,12-dihydrodibenzo[b,f][1,4]diazocine-6,11-dione Scaffold—A Useful Tool for Bioactive Molecules Design” (Molecules, 2020).
Where two headings read alike, the source gives them in different places.

Columns and labels:
[1] = tested on: EUFA30 cells (non-cancerous human fibroblasts); assay: Alamar Blue cytotoxicity assay, EUFA30; type: cell-based; settings: Fibroblast; for inhibition at 300 µM: bracketed values, read-out: proliferation inhibition expressed as a percentage at highest concentration used
Procedure: (§1) HeLa, U87, BICR18, EUFA30 cell lines were cultured in DMEM medium (Life Technology) supplemented with 10% fetal bovine serum (Life Technology) and 0.1% antibiotics, penicillin and streptomycin (Life Technology). Cells were grown in a humidified atmosphere of CO2/air (5/95%) at 37 °C.
(§2) Exponentially growing cells were seeded onto a 96-well plate at the density of 2 × 10^3 cells/well, cultured for 18 h, and treated with newly synthesized derivatives at concentrations 1–300 µM, or with DMSO as a control, for 24 or 48 h. Alamar Blue (Invitrogen) was added accordingly to manufacturer protocol. After 4 h, light emission at 590 nm was measured with excitation at 560 nm using a scanning multiwell spectrophotometer (DTX 880, Beckman Coulter). The experiments were carried out at least three times with three replicates for each inhibitor concentration. After background subtraction, inhibition rate, IC50 was calculated as the concentration of the component inhibiting cell growth by 50%. All the calculations were performed using Origin 9.0 software.

[2] = tested on: HeLa cells (cervix adenocarcinoma); assay: Alamar Blue cytotoxicity assay, HeLa; type: cell-based; settings: Homo sapiens; for IC50: 24 h of treatment, read-out: IC50 based on survival of cells
Procedure: as §1, §2

[3] = tested on: BICR18 cells (laryngeal squamous cell carcinoma); assay: Alamar Blue cytotoxicity assay, BICR18; type: cell-based; settings: for IC50: read-out: IC50 based on survival of cells
Procedure: as §1, §2

[4] = tested on: U87 cells (human primary glioblastoma); assay: Alamar Blue cytotoxicity assay, U87; type: cell-based; settings: U-87 MG; for inhibition at 300 µM: bracketed values, read-out: proliferation inhibition expressed as a percentage at highest concentration used
Procedure: as §1, §2

[5] = tested on: EUFA30 cells; assay: Annexin V-FITC / propidium iodide flow cytometry, EUFA30; type: cell-based, human; settings: EUFA30, 200 µM, 24 h; for dead cell fraction: early apoptosis: non-treated control 0.3%; for dead cell fraction: late apoptosis: non-treated control 0.4%; for dead cell fraction: necrosis: non-treated control 5.7%
Procedure: as §1
(§3) The Annexin V-FITC apoptosis detection kit (BD Biosciences) was used to detect apoptosis by flow cytometry. Cells were seeded at Petri dishes, cultured for 18 h with tested agents applied for 24 h. DMSO was added as the non-treated control and camptothecin (CPT) as the positive control. Subsequently, cells were washed with PBS, resuspended in binding buffer at a concentration of 2 × 10^6 cells/mL, and anti-Annexin V FITC-conjugated antibody and propidium iodide were added to 100 µL aliquots. The mixtures were incubated for 15 min at room temperature, supplemented with binding buffer to 500 µL and processed by BD FACSCalibur (BD Biosciences). Data were analyzed in Flowing Software version 2.5.1 (Flowing Software, http://www.uskonaskel.fi/flowingsoftware).

[6] = tested on: HeLa cells; assay: Annexin V-FITC / propidium iodide flow cytometry, HeLa; type: cell-based; settings: 200 µM, 24 h, non-treated control 5.4%
Procedure: as §1, §3

[7] = tested on: EUFA30, HeLa, BICR18, U87 cells; assay: Alamar Blue cytotoxicity assay, statements over all tested cell lines; type: cell-based; settings: Homo sapiens, concentrations 1-300 µM, group range = lowest to highest value, read-out: IC50 across the tested cell lines
Procedure: as §1, §2

Compound	inhibition at 300 µM ([1]; EUFA30, 24 h) [%]	IC50 [2] [µM]	inhibition at 300 µM ([3]; BICR18, 24 h, 300 µM, bracketed values, read-out: proliferation inhibition expressed as a percentage at highest concentration used) [%]	inhibition at 300 µM ([4]; U87, 24 h) [%]	dead cell fraction: early apoptosis [5] [%]	dead cell fraction: late apoptosis [5] [%]	dead cell fraction: necrosis [5] [%]	number of necrotic cells [6] [%]	IC50 [7] [µM]	IC50 ([1]; EUFA30, 24 h of treatment, read-out: IC50 based on survival of cells) [µM]	inhibition at 300 µM ([1]; EUFA30, 48 h) [%]	inhibition at 300 µM ([2]; 48 h, 300 µM, bracketed values, read-out: proliferation inhibition expressed as a percentage at highest concentration used) [%]	IC50 ([3]; BICR18, 24 h of treatment) [µM]	IC50 ([3]; BICR18, 48 h of treatment, N.A. = not active) [µM]	IC50 ([4]; U87, 24 h of treatment, read-out: IC50 based on survival of cells) [µM]	inhibition at 300 µM ([4]; U87, 48 h) [%]
CCOC(=O)CN1C(=O)c2cc(Cl)c(Cl)cc2C(=O)N(C)c2ccccc21 [Compound 3n, ethyl 2-(8,9-dichloro-12-methyl-6,11-dioxo-11,12-dihydrodibenzo[b,f][1,4]diazocin-5(6H)-yl)acetate]	41.5	311 ± 14.1	20.9	30.7	7.8	1.4	1.9	11.3	93.7 to 323	–	–	–	–	–	–	–
CC(=O)N1C(=O)c2ccccc2C(=O)N(Cc2ccccc2)c2ccccc21 [Compound 3o, 5-acetyl-12-benzyl-5,12-dihydrodibenzo[b,f][1,4]diazocine-6,11-dione]	–	169 ± 13.4	–	–	9.5	6.4	0.8	27.7	93.7 to 323	155 ± 14.6	41.8	33.4	121 ± 11.4	294 ± 3.2	240 ± 6.1	33.8
